Values after ≈ are worked out from the molar mass of the structure shown.
Key:
Experiment in all cases: microbe, parasite or virus in culture
Assay type in all cases: cell-based
[1] = test system: Phytophthora infestans; settings: read-out: MIC (Minimum Inhibitory Concentration) PHYTIN
[2] = test system: Pyrenophora teres; settings: read-out: MIC (Minimum Inhibitory Concentration) PYRNTE
[3] = test system: Leptosphaeria nodorum; settings: Parastagonospora nodorum, read-out: MIC (Minimum Inhibitory Concentration) LEPTNO
[4] = test system: Magnaporthe grisea f. sp. oryzae; settings: Pyricularia oryzae, read-out: MIC (Minimum Inhibitory Concentration) PYRIOR, Table II; total inhibition of mycelial growth, V8 juice nutrient solution, 6-12 days at 18-25°C, visual inspection
[5] = test system: Rhizoctonia solani; settings: read-out: MIC (Minimum Inhibitory Concentration) RHIZSO
[6] = test system: Alternaria solani; settings: read-out: MIC (Minimum Inhibitory Concentration) ALTESO
[7] = test system: Botrytis cinerea; settings: read-out: MIC (Minimum Inhibitory Concentration) BOTRCI

Row | Compound | MIC [1] | MIC [2] | MIC [3] | MIC [4] | MIC [5] | MIC [6] | MIC [7]
1 | CCCCCCc1c(-c2c(F)cccc2Cl)c(Cl)nc2ncnn12 [Example 1, 5-chloro-7-n-hexyl-6-(2-chloro-6-fluorophenyl)-1,2,4-triazolo[1,5a]pyrimidine] | 100 µg/mL (≈ 272 µM) | 3.13 µg/mL (≈ 8.52 µM) | 12.5 µg/mL (≈ 34 µM) | 1.56 µg/mL (≈ 4.25 µM) | – | – | –
2 | CC1CCC(c2c(-c3c(F)cccc3Cl)c(Cl)nc3ncnn23)CC1 (stereo not drawn) [Example 2, 5-chloro-7-(4-methylcyclohexyl)-6-(2-chloro-6-fluorophenyl)-1,2,4-triazolo[1,5a]pyrimidine] | > 100 µg/mL | 1.56 µg/mL (≈ 4.11 µM) | – | < 0.05 µg/mL | > 100 µg/mL | 0.1 µg/mL (≈ 0.264 µM) | 0.2 µg/mL (≈ 0.527 µM)
3 | CN1C=C(c2c(-c3c(F)cc(F)cc3F)c(Cl)nc3ncnn23)CCC1 [Example 6, 5-chloro-7-(N-methyl-2,3-dehydropiperid-3-yl)-6-(2,4,6-trifluorophenyl)-1,2,4-triazolo[1,5a]pyrimidine] | > 100 µg/mL | – | 25 µg/mL (≈ 65.8 µM) | 0.78 µg/mL (≈ 2.05 µM) | > 100 µg/mL | 3.13 µg/mL (≈ 8.24 µM) | 25 µg/mL (≈ 65.8 µM)
4 | COc1nc2ncnn2c(C2CCCCC2)c1-c1c(F)cccc1F [Example 7, 5-methoxy-7-cyclohexyl-6-(2,6-difluorophenyl)-1,2,4-triazolo[1,5a]pyrimidine] | > 100 µg/mL | > 100 µg/mL | > 100 µg/mL | 1.56 µg/mL (≈ 4.53 µM) | > 100 µg/mL | 1.56 µg/mL (≈ 4.53 µM) | 12.5 µg/mL (≈ 36.3 µM)
5 | CCCCc1c(-c2ccccc2C)c(Cl)nc2ncnn12 [Example 19] | 50 µg/mL (≈ 166 µM) | 6.25 µg/mL (≈ 20.8 µM) | 12.5 µg/mL (≈ 41.6 µM) | 0.78 µg/mL (≈ 2.59 µM) | > 100 µg/mL | 1.56 µg/mL (≈ 5.19 µM) | 12.5 µg/mL (≈ 41.6 µM)
6 | CCCCc1c(-c2ccccc2Cl)c(Cl)nc2ncnn12 [Example 20] | > 100 µg/mL | 3.13 µg/mL (≈ 9.74 µM) | 3.13 µg/mL (≈ 9.74 µM) | < 0.05 µg/mL | 3.13 µg/mL (≈ 9.74 µM) | 0.2 µg/mL (≈ 0.623 µM) | 1.56 µg/mL (≈ 4.86 µM)
7 | CCCCc1c(-c2ccccc2F)c(Cl)nc2ncnn12 [Example 21] | 100 µg/mL (≈ 328 µM) | 0.78 µg/mL (≈ 2.56 µM) | 3.13 µg/mL (≈ 10.3 µM) | < 0.05 µg/mL | 3.13 µg/mL (≈ 10.3 µM) | 0.1 µg/mL (≈ 0.328 µM) | 1.56 µg/mL (≈ 5.12 µM)
8 | CCCCc1c(-c2c(F)cccc2F)c(Cl)nc2ncnn12 [Example 22] | > 100 µg/mL | 6.25 µg/mL (≈ 19.4 µM) | 1.56 µg/mL (≈ 4.83 µM) | 0.1 µg/mL (≈ 0.31 µM) | 1.56 µg/mL (≈ 4.83 µM) | 0.1 µg/mL (≈ 0.31 µM) | 1.56 µg/mL (≈ 4.83 µM)
9 | CCCCc1c(-c2ccccc2)c(Cl)nc2ncnn12 [Example 23] | 50 µg/mL (≈ 174 µM) | > 100 µg/mL | > 100 µg/mL | 25 µg/mL (≈ 87.2 µM) | > 100 µg/mL | 6.25 µg/mL (≈ 21.8 µM) | > 100 µg/mL
10 | CCc1c(-c2c(F)cccc2Cl)c(Cl)nc2ncnn12 [Example 24] | > 100 µg/mL | > 100 µg/mL | 3.13 µg/mL (≈ 10.1 µM) | < 0.05 µg/mL | 6.25 µg/mL (≈ 20.1 µM) | 12.5 µg/mL (≈ 40.2 µM) | 6.25 µg/mL (≈ 20.1 µM)
11 | Fc1cccc(Cl)c1-c1c(F)nc2ncnn2c1C1CCCCC1 [Example 37] | > 100 µg/mL | > 100 µg/mL | > 100 µg/mL | – | > 100 µg/mL | – | –
12 | COc1nc2ncnn2c(C2CCCCC2)c1-c1c(F)cc(F)cc1F [Example 49] | > 100 µg/mL | 1.56 µg/mL (≈ 4.31 µM) | > 100 µg/mL | 0.39 µg/mL (≈ 1.08 µM) | > 100 µg/mL | 0.2 µg/mL (≈ 0.552 µM) | –
13 | COc1cc(F)c(-c2c(Cl)nc3ncnn3c2C2CCCCC2)c(F)c1 [Example 68] | > 100 µg/mL | – | 0.39 µg/mL (≈ 1.03 µM) | < 0.05 µg/mL | 0.78 µg/mL (≈ 2.06 µM) | < 0.05 µg/mL | < 0.05 µg/mL
14 | COc1cc(F)c(-c2c(OC)nc3ncnn3c2C2CCCCC2)c(F)c1 [Example 69] | > 100 µg/mL | – | 1.56 µg/mL (≈ 4.17 µM) | < 0.05 µg/mL | 3.13 µg/mL (≈ 8.36 µM) | < 0.05 µg/mL | < 0.05 µg/mL
15 | Fc1cc(F)c(-c2c(Cl)nc3ncnn3c2[C@H]2CC[C@@H](F)CC2)c(F)c1 [Example 71] | > 100 µg/mL | – | 0.78 µg/mL (≈ 2.03 µM) | < 0.05 µg/mL | 6.25 µg/mL (≈ 16.2 µM) | < 0.05 µg/mL | 0.2 µg/mL (≈ 0.52 µM)
16 | COc1cc(F)c(-c2c(Cl)nc3ncnn3c2C2CC=CCC2)c(F)c1 (stereo not drawn) [Example 74] | > 100 µg/mL | – | 0.78 µg/mL (≈ 2.07 µM) | < 0.05 µg/mL | 0.39 µg/mL (≈ 1.04 µM) | < 0.05 µg/mL | < 0.05 µg/mL
17 | COc1nc2ncnn2c([C@H]2CC[C@@H](F)CC2)c1-c1c(F)cc(F)cc1F [Example 75] | > 100 µg/mL | – | 12.5 µg/mL (≈ 32.9 µM) | 0.39 µg/mL (≈ 1.03 µM) | > 100 µg/mL | 1.56 µg/mL (≈ 4.1 µM) | 6.25 µg/mL (≈ 16.4 µM)
18 | CC(=O)OC1CCC(c2c(-c3c(F)cc(F)cc3F)c(Cl)nc3ncnn23)CC1 (stereo not drawn) [Example 84] | > 100 µg/mL | – | 12.5 µg/mL (≈ 29.4 µM) | 3.13 µg/mL (≈ 7.37 µM) | 100 µg/mL (≈ 235 µM) | 3.13 µg/mL (≈ 7.37 µM) | 12.5 µg/mL (≈ 29.4 µM)
19 | COc1cc(F)c(-c2c(Cl)nc3ncnn3c2C2CCC(OC(C)=O)CC2)c(F)c1 (stereo not drawn) [Example 85] | 25 µg/mL (≈ 57.2 µM) | – | 6.25 µg/mL (≈ 14.3 µM) | 0.78 µg/mL (≈ 1.79 µM) | > 100 µg/mL | 0.78 µg/mL (≈ 1.79 µM) | 1.56 µg/mL (≈ 3.57 µM)
20 | COc1cc(F)c(-c2c(Cl)nc3ncnn3c2[C@H]2CC[C@@H](F)CC2)c(F)c1 [Example 87] | > 100 µg/mL | – | 0.39 µg/mL (≈ 0.983 µM) | < 0.05 µg/mL | > 100 µg/mL | < 0.05 µg/mL | < 0.05 µg/mL
21 | COc1cc(F)c(-c2c(OC)nc3ncnn3c2[C@H]2CC[C@@H](F)CC2)c(F)c1 [Example 89] | > 100 µg/mL | – | 6.25 µg/mL (≈ 15.9 µM) | < 0.05 µg/mL | 12.5 µg/mL (≈ 31.9 µM) | < 0.05 µg/mL | 1.56 µg/mL (≈ 3.98 µM)
22 | CCCc1c(-c2c(F)cc(OC)cc2F)c(Cl)nc2ncnn12 [Example 93] | 100 µg/mL (≈ 295 µM) | – | 6.25 µg/mL (≈ 18.5 µM) | < 0.05 µg/mL | 0.39 µg/mL (≈ 1.15 µM) | 0.2 µg/mL (≈ 0.59 µM) | 0.2 µg/mL (≈ 0.59 µM)
23 | COc1cc(F)c(-c2c(Cl)nc3ncnn3c2CC(C)C)c(F)c1 [Example 94] | > 100 µg/mL | – | 3.13 µg/mL (≈ 8.87 µM) | < 0.05 µg/mL | 0.2 µg/mL (≈ 0.567 µM) | 0.1 µg/mL (≈ 0.283 µM) | 0.2 µg/mL (≈ 0.567 µM)
24 | COc1cc(F)c(-c2c(Cl)nc3ncnn3c2C2CCCO2)c(F)c1 (stereo not drawn) [Example 95] | 100 µg/mL (≈ 273 µM) | – | 3.13 µg/mL (≈ 8.53 µM) | 0.1 µg/mL (≈ 0.273 µM) | 3.13 µg/mL (≈ 8.53 µM) | 0.2 µg/mL (≈ 0.545 µM) | 0.78 µg/mL (≈ 2.13 µM)
25 | CCCCc1c(-c2c(F)cc(OC)cc2F)c(Cl)nc2ncnn12 [Example 96] | > 100 µg/mL | – | 3.13 µg/mL (≈ 8.87 µM) | < 0.05 µg/mL | 0.78 µg/mL (≈ 2.21 µM) | < 0.05 µg/mL | 0.1 µg/mL (≈ 0.283 µM)
26 | COc1cc(F)c(-c2c(Cl)nc3ncnn3c2C2CCCC2)c(F)c1 [Example 97] | > 100 µg/mL | – | 6.25 µg/mL (≈ 17.1 µM) | 0.1 µg/mL (≈ 0.274 µM) | 0.39 µg/mL (≈ 1.07 µM) | < 0.05 µg/mL | 0.2 µg/mL (≈ 0.548 µM)
27 | CCCc1c(-c2c(F)cc(OC)cc2F)c(OC)nc2ncnn12 [Example 98] | > 100 µg/mL | – | 100 µg/mL (≈ 299 µM) | 0.2 µg/mL (≈ 0.598 µM) | 1.56 µg/mL (≈ 4.67 µM) | 1.56 µg/mL (≈ 4.67 µM) | 3.13 µg/mL (≈ 9.36 µM)
28 | COc1cc(F)c(-c2c(OC)nc3ncnn3c2C2CCCC2)c(F)c1 [Example 99] | > 100 µg/mL | – | > 100 µg/mL | 0.39 µg/mL (≈ 1.08 µM) | 1.56 µg/mL (≈ 4.33 µM) | 0.39 µg/mL (≈ 1.08 µM) | 0.78 µg/mL (≈ 2.16 µM)
29 | COc1cc(F)c(-c2c(OC)nc3ncnn3c2CC(C)C)c(F)c1 [Example 100] | > 100 µg/mL | – | > 100 µg/mL | < 0.05 µg/mL | 1.56 µg/mL (≈ 4.48 µM) | 0.39 µg/mL (≈ 1.12 µM) | 0.78 µg/mL (≈ 2.24 µM)
